Experimental data reported in the kinase profiling compilation of Christmann-Franck et al. (2016).

Tests used:
Assay in all cases: KINOMEscan competition binding
Conditions in all cases: compound 10.0 µM
PRKCH (human) = PRKCH (human) (UniProt P24723)
PIP4K2C (human) = PIP4K2C (human) (UniProt Q8TBX8)
MAPK15 (human) = MAPK15 (human) (UniProt Q8TD08)
CDK13 (human) = CDK13 (human) (UniProt Q14004)
CIT (human) = CIT (human) (UniProt O14578)
EPHA1 (human) = EPHA1 (human) (UniProt P21709)
SRPK2 (human) = SRPK2 (human) (UniProt P78362)
ULK1 (human) = ULK1 (human) (UniProt O75385)
MET (human) = MET (human) (UniProt P08581)
MLTK (human) = MLTK (human) (UniProt Q9NYL2)
CAMK1D (human) = CAMK1D (human) (UniProt Q8IU85)
STK33 (human) = STK33 (human) (UniProt Q9BYT3)
MAP4K3 (human) = MAP4K3 (human) (UniProt Q8IVH8)
SRMS (human) = SRMS (human) (UniProt Q9H3Y6)
MAP3K15 (human) = MAP3K15 (human) (UniProt Q6ZN16)
SLK (human) = SLK (human) (UniProt Q9H2G2)
MAPKAPK5 (human) = MAPKAPK5 (human) (UniProt Q8IW41)
MARK2 (human) = MARK2 (human) (UniProt Q7KZI7)
TESK1 (human) = TESK1 (human) (UniProt Q15569)
[1] = system: FLT3 (human), P36888 [D835Y]
TBK1 (human) = TBK1 (human) (UniProt Q9UHD2)
NUAK2 (human) = NUAK2 (human) (UniProt Q9H093)
NLK (human) = NLK (human) (UniProt Q9UBE8)
[2] = system: MET (human), P08581 [Y1235D]
PRKD1 (human) = PRKD1 (human) (UniProt Q15139)
STK3 (human) = STK3 (human) (UniProt Q13188)
WEE1 (human) = WEE1 (human) (UniProt P30291)
EPHA5 (human) = EPHA5 (human) (UniProt P54756)
PTK6 (human) = PTK6 (human) (UniProt Q13882)
EIF2AK2 (human) = EIF2AK2 (human) (UniProt P19525)
ERBB3 (human) = ERBB3 (human) (UniProt P21860)
[3] = system: EGFR (human), P00533 [G719C]
[4] = system: MET (human), P08581 [M1250T]
LATS1 (human) = LATS1 (human) (UniProt O95835)
MAP2K7 (human) = MAP2K7 (human) (UniProt O14733)
[5] = system: EGFR (human), P00533 [T790M/L858R]
PLK3 (human) = PLK3 (human) (UniProt Q9H4B4)
[6] = system: EGFR (human), P00533 [P753S; 747-752 del]
STK35 (human) = STK35 (human) (UniProt Q8TDR2)
SYK (human) = SYK (human) (UniProt P43405)
RIOK2 (human) = RIOK2 (human) (UniProt Q9BVS4)
TNIK (human) = TNIK (human) (UniProt Q9UKE5)

Chain of EPHA5 (human) (P54756 whole entry, looked up): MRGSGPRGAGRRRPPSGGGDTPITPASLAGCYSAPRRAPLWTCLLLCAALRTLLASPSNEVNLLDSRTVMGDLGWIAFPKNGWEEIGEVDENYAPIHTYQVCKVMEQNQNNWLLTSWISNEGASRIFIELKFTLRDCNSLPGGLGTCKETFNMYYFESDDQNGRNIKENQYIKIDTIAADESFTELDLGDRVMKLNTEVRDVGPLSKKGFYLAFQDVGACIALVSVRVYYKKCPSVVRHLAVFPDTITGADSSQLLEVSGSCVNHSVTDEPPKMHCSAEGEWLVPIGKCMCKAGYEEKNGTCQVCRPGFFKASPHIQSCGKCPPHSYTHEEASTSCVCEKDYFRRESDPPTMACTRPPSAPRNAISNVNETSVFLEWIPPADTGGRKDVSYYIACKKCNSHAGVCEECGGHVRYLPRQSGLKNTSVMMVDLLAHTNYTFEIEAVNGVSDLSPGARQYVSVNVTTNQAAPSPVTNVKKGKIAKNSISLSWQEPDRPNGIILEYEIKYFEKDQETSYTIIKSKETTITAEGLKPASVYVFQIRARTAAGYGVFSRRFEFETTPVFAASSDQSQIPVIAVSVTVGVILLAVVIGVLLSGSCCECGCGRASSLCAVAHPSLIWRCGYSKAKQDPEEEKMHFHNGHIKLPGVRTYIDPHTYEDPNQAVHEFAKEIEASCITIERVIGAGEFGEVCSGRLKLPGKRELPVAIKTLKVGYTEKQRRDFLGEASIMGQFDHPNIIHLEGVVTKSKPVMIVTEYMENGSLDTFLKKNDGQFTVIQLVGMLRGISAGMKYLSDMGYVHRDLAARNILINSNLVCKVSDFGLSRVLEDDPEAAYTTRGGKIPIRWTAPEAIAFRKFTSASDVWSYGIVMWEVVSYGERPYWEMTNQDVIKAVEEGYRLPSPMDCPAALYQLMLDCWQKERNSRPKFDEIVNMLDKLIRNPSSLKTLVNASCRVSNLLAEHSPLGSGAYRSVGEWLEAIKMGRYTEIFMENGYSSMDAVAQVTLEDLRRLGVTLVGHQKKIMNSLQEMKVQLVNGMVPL
Chain of ERBB3 (human) (P21860 whole entry, looked up): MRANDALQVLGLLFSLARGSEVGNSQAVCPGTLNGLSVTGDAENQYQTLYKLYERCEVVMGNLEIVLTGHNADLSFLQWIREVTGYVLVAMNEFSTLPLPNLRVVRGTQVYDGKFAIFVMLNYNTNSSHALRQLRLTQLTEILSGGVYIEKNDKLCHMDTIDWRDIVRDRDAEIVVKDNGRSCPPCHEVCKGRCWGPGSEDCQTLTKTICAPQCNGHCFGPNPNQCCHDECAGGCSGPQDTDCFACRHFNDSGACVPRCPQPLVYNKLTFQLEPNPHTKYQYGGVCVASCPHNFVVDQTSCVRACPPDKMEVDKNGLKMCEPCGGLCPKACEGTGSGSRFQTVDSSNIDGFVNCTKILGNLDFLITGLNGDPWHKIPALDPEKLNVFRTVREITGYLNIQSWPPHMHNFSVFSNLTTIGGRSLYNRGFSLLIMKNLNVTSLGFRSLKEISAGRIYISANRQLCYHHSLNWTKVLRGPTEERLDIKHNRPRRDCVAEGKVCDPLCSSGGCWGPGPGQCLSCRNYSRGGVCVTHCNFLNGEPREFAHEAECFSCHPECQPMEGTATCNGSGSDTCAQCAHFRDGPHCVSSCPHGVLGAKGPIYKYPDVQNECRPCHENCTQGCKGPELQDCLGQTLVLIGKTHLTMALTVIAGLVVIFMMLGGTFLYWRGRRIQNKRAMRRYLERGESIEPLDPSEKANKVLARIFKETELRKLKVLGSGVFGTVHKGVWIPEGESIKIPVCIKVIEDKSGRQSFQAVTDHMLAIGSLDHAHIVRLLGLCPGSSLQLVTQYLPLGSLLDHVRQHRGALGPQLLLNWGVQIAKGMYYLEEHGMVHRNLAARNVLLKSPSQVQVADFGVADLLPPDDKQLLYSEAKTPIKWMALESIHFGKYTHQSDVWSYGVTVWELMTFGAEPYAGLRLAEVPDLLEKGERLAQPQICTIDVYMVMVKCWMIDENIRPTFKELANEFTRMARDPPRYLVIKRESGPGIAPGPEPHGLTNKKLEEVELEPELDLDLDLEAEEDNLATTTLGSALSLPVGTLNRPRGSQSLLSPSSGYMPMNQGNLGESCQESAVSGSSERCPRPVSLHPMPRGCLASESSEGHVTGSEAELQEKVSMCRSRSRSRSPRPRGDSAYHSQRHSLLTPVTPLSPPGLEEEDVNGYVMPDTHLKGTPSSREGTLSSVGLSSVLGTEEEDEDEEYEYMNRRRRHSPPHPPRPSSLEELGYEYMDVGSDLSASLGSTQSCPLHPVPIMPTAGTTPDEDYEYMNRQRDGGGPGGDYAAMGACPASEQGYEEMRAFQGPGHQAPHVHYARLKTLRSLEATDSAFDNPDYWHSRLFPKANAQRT
Chain of STK3 (human) (Q13188 whole entry, looked up): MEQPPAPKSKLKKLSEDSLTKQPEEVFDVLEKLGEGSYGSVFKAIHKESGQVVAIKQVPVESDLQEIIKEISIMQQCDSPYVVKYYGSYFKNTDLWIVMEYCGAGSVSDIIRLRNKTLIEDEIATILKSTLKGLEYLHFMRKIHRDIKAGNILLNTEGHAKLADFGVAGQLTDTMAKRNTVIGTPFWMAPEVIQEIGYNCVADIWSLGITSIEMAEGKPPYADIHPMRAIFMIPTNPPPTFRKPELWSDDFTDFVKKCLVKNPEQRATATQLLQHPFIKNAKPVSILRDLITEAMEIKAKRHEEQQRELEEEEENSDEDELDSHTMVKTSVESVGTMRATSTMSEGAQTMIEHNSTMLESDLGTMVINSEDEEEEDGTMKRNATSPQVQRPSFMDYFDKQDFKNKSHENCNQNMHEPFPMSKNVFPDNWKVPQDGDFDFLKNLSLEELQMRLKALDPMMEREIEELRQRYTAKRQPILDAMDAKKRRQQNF
Chain of EIF2AK2 (human) (P19525 whole entry, looked up): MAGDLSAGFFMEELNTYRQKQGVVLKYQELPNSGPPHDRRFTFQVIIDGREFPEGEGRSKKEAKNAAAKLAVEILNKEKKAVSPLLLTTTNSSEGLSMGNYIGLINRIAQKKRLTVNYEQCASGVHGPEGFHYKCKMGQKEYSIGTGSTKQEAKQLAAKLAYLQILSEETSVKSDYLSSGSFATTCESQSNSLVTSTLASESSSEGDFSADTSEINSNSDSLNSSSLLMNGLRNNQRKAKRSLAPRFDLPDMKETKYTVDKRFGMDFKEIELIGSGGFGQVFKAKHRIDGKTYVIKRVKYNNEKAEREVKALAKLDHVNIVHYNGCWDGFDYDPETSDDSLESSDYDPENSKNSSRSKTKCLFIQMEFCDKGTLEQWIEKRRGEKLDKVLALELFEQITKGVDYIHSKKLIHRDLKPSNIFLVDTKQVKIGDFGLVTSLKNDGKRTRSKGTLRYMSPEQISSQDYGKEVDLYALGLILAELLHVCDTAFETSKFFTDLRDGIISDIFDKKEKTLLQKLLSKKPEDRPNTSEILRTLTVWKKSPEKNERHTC
Chain of TBK1 (human) (Q9UHD2 whole entry, looked up): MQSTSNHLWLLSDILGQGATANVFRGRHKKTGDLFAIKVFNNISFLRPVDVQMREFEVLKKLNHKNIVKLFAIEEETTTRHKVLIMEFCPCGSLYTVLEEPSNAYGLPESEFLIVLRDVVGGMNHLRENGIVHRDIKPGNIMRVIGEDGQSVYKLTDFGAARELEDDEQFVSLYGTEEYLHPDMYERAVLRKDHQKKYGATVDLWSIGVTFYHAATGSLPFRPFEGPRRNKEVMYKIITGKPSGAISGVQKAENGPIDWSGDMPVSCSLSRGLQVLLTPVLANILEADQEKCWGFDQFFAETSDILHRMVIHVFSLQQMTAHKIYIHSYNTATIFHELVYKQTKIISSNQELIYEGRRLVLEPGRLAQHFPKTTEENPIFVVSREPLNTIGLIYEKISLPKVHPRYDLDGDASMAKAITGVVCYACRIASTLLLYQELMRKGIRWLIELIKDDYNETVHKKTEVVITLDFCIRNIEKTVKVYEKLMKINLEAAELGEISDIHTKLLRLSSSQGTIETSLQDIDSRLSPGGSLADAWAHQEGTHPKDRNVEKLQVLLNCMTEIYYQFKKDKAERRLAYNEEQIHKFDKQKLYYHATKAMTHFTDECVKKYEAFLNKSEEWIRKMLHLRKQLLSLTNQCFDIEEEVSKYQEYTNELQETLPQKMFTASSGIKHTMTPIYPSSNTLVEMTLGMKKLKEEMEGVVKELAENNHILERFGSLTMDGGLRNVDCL
Chain of STK33 (human) (Q9BYT3 whole entry, looked up): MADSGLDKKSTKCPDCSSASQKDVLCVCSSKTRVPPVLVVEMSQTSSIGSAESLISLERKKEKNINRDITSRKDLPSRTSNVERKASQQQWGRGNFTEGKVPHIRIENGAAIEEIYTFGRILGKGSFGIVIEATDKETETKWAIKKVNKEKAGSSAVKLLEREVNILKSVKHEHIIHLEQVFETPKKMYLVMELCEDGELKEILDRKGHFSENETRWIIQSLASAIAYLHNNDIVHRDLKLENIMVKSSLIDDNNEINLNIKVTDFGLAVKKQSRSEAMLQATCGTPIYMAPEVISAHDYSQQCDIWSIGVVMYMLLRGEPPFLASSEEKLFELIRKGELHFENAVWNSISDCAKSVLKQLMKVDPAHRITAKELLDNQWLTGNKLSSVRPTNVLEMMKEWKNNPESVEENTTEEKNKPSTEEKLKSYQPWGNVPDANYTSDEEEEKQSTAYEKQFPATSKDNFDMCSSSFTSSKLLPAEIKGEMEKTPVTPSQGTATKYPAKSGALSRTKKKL
Chain of CAMK1D (human) (Q8IU85 whole entry, looked up): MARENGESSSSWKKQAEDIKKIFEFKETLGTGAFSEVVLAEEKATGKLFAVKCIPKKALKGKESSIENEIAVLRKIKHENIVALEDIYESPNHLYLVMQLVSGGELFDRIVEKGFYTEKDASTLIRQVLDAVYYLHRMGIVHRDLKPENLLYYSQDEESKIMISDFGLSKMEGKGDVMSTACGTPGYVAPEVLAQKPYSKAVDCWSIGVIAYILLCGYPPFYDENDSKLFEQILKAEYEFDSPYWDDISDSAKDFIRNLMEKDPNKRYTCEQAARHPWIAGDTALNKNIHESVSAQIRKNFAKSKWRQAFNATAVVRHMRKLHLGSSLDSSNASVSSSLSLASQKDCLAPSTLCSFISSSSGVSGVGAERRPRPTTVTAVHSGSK

## Cc1cc([C@@H](C)Nc2ccccc2C(=O)O)c2nc(N3CCOCC3)cc(=O)n2c1
PRKCH (human)
  kinase still bound, per cent of control: 95%
PIP4K2C (human)
  kinase still bound, per cent of control: 94%
MAPK15 (human)
  kinase still bound, per cent of control: 100%
CDK13 (human)
  kinase still bound, per cent of control: 100%
CIT (human)
  kinase still bound, per cent of control: 88%
EPHA1 (human)
  kinase still bound, per cent of control: 100%
SRPK2 (human)
  kinase still bound, per cent of control: 88%
ULK1 (human)
  kinase still bound, per cent of control: 73%
MET (human)
  kinase still bound, per cent of control: 95%
MLTK (human)
  kinase still bound, per cent of control: 100%
CAMK1D (human)
  kinase still bound, per cent of control: 93%
STK33 (human)
  kinase still bound, per cent of control: 100%
MAP4K3 (human)
  kinase still bound, per cent of control: 99%
SRMS (human)
  kinase still bound, per cent of control: 100%
MAP3K15 (human)
  kinase still bound, per cent of control: 55%
SLK (human)
  kinase still bound, per cent of control: 85%
MAPKAPK5 (human)
  kinase still bound, per cent of control: 90%
MARK2 (human)
  kinase still bound, per cent of control: 100%
TESK1 (human)
  kinase still bound, per cent of control: 100%
[1]
  kinase still bound, per cent of control: 24%
TBK1 (human)
  kinase still bound, per cent of control: 100%
NUAK2 (human)
  kinase still bound, per cent of control: 100%
NLK (human)
  kinase still bound, per cent of control: 100%
[2]
  kinase still bound, per cent of control: 93%
PRKD1 (human)
  kinase still bound, per cent of control: 100%
STK3 (human)
  kinase still bound, per cent of control: 97%
WEE1 (human)
  kinase still bound, per cent of control: 88%
EPHA5 (human)
  kinase still bound, per cent of control: 100%
PTK6 (human)
  kinase still bound, per cent of control: 15%
EIF2AK2 (human)
  kinase still bound, per cent of control: 100%
ERBB3 (human)
  kinase still bound, per cent of control: 100%
[3]
  kinase still bound, per cent of control: 100%
[4]
  kinase still bound, per cent of control: 67%
LATS1 (human)
  kinase still bound, per cent of control: 60%
MAP2K7 (human)
  kinase still bound, per cent of control: 100%
[5]
  kinase still bound, per cent of control: 100%
PLK3 (human)
  kinase still bound, per cent of control: 94%
[6]
  kinase still bound, per cent of control: 100%
STK35 (human)
  kinase still bound, per cent of control: 96%
SYK (human)
  kinase still bound, per cent of control: 90%
RIOK2 (human)
  kinase still bound, per cent of control: 35%
TNIK (human)
  kinase still bound, per cent of control: 97%
